These molecules were tested against T1, human Cav2.2α (α1B) subunit, along with the human β3 and α2δ1 auxiliary subunits (Homo sapiens, UniProt Q00975) (assay: hCav2.2 assay (IonWorks planar array electrophysiology)). Conditions: HEK293 cells; inhibition of current elicited by the 1st depolarising pulse by 50%; read-out: mean pIC50 value (tonic pIC50) (converted).
T1 construct: expressed in transfected cells; plasmids pCIN5-hCav2.2, pCIH-hCav β3, pCIP-α2δ1
Type: cell-based
Procedure: Compounds of the invention may be tested for in vitro biological activity in the hCav2.2 assay in accordance with the following studies:
Stable cell lines expressing the human Cav2.2α (α1B) subunit, along with the human β3 and α2δ1 auxiliary subunits were created following sequential transfection and selection of human embryonic kidney (HEK293) cells. HEK293 cells were cultured in Dulbecco's modified Eagles media/F12 media (Invitrogen, Cat #041-95750V) containing 10% fetal bovine serum, with added L-glutamine (2 mM; Invitrogen, Cat #25030-024) and non-essential amino acids (5%; Invitrogen, Cat #11140-035). Initially HEK293 cells were transfected with two plasmid vectors for expression of the hCav2.2α subunit (pCIN5-hCav2.2 which carries a neomycin resistance marker) and the hCav β3 subunit (pCIH-hCav β3 which carries a hygromycin resistance marker). Clonal cell lines were isolated following selection in media supplemented with 0.4 mg ml^−1 Geneticin G418 (Invitrogen, Cat #10131-027) and 0.1 mg ml^−1 hygromycin (Invitrogen, Cat #10687-010). These clonal cell lines were assessed for Cav2.2α/β3-mediated current expression using the IonWorks planar array electrophysiology technology (described below). A clonal line was identified that gave a reasonable level of functional Cav2.2α/β3 current expression. This cell line was transfected with a plasmid vector for expression of the human α2δ1 subunit (pCIP-α2δ1 which carries a puromycin resistance marker) and clonal cell lines isolated following selection in media containing 0.62 μg ml^−1 puromycin (Sigma, Cat # P-7255), in addition to 0.4 mg ml^−1 Geneticin G418 and 0.1 mg ml^−1 hygromycin. Several cell lines were identified that gave robust levels of Cav2.2α/β3/α2δ1-mediated current expression and one of these was selected for compound profiling. Expression of all three subunits within this cell line was continuously maintained by the inclusion of G418 (0.4 mg ml^−1), hygromycin (0.1 mg ml^−1) and puromycin (0.62 μg ml^−1). Cells were maintained at 37° C. in a humidified environment containing 5% CO2 in air. Cells were liberated from the T175 culture flasks for passage and harvesting using TrpLE (Invitrogen, Cat #12604-013).
Cells were grown to 30-60% confluence in T175 flasks and maintained at 30° C. for 24 hrs prior to recording. Cells were lifted by removing the growth media, washing with Ca^2+free PBS (Invitrogen, Cat #14190-094) and incubating with 3 ml of warmed (37° C.) TrpLE (Invitrogen, Cat #12604-013) for 6 minutes. Lifted cells were suspended in 10 ml of extracellular buffer. Cell suspension was then placed into a 15 ml tube and centrifuged for 2 minutes at 700 rpm. After centrifugation, the supernatant was removed and the cell pellet was resuspended in 4.5 ml of extracellular solution.
Currents were recorded at room temperature (21-23° C.) using the IonWorks planar array electrophysiology technology (Molecular Devices Corp.). Stimulation protocols and data acquisition were carried out using a microcomputer (Dell Pentium 4). In order to determine planar electrode hole resistances (Rp), a 10 mV, 160 ms potential difference was applied across each hole. These measurements were performed before cell addition. After cell addition a seal test was performed prior to antibiotic (amphotericin) circulation to achieve intracellular access. Leak subtraction was conducted in all experiments by applying a 160 ms hyperpolarizing (10 mV) prepulse 200 ms before the test pulses to measure leak conductance. Test pulses stepping from the holding potential (VH) of −90 mV to +10 mV were applied for 20 ms and repeated 10 times at a frequency of 10 Hz. In all experiments, the test pulse protocol was performed in the absence (pre-read) and presence (post-read) of a compound. Pre- and post-reads were separated by a compound addition followed by a 3-3.5 min incubation.
The intracellular solution contained the following (in mM): K-gluconate 120, KCl 20 mM, MgCl2 5, EGTA 5, HEPES 10, adjusted to pH 7.3. […]

T1 sequence (Q00975 whole entry): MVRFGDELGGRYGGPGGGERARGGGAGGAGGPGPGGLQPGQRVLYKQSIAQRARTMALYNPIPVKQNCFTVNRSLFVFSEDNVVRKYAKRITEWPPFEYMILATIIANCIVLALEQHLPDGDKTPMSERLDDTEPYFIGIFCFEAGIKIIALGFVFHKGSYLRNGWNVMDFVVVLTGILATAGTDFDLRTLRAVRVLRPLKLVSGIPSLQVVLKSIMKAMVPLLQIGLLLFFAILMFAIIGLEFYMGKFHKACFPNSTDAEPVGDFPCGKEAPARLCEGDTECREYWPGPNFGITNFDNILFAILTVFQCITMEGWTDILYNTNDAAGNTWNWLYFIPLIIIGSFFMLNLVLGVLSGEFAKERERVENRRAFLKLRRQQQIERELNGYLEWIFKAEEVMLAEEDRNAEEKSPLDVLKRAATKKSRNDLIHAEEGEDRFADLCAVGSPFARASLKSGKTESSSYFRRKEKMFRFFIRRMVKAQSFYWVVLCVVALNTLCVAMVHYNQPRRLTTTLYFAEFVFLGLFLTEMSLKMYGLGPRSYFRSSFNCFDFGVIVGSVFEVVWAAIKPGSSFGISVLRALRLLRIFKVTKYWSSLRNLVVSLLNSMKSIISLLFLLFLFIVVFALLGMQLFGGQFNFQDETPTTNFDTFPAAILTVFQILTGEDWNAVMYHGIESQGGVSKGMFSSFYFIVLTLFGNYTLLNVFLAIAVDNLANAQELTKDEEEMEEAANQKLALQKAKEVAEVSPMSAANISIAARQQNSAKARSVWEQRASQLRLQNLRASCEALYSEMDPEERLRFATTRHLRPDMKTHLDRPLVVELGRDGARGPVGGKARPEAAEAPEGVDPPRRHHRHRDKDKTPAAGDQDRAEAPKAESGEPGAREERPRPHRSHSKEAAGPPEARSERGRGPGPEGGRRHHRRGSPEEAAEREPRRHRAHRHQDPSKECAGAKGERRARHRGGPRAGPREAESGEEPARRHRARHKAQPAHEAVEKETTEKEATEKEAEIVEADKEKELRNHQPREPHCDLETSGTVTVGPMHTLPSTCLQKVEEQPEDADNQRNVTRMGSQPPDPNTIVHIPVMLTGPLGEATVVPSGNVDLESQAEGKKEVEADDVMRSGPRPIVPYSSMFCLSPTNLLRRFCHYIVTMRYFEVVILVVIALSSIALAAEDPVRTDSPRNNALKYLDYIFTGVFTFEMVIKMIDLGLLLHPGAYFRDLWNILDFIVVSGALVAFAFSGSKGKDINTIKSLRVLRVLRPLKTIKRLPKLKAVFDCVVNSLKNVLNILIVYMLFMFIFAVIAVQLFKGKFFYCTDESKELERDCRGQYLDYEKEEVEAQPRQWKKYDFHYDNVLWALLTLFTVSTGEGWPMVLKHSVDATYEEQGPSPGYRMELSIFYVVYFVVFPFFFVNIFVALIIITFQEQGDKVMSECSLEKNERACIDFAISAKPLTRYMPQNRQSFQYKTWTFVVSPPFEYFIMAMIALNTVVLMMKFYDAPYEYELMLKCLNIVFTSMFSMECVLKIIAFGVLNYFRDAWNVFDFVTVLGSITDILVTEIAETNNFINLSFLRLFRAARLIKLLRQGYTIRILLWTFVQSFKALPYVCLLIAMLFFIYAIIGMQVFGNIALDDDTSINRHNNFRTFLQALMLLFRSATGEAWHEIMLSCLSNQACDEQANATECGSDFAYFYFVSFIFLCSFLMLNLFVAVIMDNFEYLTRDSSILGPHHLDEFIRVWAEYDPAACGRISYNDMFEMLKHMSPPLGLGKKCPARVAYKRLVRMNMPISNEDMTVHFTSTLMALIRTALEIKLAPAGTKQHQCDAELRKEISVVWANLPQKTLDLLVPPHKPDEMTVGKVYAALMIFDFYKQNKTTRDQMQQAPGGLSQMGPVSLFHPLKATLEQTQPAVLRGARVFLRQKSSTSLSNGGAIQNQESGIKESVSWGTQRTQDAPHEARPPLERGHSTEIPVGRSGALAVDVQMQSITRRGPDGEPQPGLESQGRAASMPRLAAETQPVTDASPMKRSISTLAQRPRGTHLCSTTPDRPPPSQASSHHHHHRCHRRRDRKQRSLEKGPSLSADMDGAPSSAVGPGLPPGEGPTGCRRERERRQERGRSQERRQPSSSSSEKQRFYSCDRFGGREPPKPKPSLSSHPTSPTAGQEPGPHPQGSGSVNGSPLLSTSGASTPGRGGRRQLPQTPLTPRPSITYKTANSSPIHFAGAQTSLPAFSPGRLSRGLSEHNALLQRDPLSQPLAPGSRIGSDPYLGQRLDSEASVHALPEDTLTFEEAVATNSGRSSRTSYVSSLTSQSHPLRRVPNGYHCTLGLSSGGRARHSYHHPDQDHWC
T1 sequence (P54284 whole entry partner): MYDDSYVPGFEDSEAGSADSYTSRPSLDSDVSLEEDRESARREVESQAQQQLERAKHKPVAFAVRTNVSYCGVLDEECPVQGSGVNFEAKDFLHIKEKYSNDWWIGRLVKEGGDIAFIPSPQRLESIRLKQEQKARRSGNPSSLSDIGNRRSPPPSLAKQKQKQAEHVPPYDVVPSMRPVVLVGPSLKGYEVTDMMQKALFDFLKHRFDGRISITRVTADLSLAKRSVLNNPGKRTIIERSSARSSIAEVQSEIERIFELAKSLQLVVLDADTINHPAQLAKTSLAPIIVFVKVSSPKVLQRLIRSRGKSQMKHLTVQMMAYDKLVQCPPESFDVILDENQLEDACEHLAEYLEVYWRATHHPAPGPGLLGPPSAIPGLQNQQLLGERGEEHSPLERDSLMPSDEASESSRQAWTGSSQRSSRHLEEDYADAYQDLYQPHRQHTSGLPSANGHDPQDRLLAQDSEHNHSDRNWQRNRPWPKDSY
T1 sequence (P54289 25-946 partner limits assumed): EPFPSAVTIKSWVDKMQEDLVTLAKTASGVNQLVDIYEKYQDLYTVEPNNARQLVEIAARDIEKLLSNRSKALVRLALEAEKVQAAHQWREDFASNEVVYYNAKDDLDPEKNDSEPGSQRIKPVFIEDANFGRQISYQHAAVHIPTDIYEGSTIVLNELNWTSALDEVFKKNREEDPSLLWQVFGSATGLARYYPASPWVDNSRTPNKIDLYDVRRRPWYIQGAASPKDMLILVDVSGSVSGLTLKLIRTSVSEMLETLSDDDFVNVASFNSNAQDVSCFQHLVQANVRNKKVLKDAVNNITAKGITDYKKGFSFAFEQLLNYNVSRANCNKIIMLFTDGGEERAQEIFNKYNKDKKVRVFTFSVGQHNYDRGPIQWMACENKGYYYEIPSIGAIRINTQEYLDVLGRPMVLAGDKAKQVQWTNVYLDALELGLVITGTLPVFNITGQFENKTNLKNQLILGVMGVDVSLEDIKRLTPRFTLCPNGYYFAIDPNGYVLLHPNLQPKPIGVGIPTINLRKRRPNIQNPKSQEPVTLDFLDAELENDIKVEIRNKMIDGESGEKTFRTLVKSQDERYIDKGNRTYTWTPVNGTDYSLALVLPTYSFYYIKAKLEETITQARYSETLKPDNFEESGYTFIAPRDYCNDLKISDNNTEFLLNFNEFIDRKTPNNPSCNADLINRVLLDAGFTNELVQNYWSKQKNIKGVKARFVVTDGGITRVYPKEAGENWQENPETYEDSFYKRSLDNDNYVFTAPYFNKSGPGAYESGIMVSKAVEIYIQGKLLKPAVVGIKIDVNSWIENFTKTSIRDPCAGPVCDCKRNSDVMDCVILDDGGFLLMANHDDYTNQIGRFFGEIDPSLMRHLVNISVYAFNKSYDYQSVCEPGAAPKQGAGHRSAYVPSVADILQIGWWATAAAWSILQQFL
T1 sequence (P54289 947-1103 partner limits assumed): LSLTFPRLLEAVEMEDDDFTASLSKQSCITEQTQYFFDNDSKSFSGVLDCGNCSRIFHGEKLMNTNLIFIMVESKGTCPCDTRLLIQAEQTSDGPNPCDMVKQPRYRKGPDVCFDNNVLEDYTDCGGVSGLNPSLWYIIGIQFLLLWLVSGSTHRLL

IC50 [µM]	SMILES
≥ 31.6	Cc1ccc(S(=O)(=O)N2CCCC3(CCNC3=O)C2)c(C)c1 (stereo not drawn) [Compound 7, 7-[(2,4-Dimethylphenyl)sulfonyl]-2,7-diazaspiro[4.5]decan-1-one]
≥ 31.6	O=C1NCCCC12CCCN(S(=O)(=O)c1ccc(OC(F)(F)F)cc1)C2 (stereo not drawn) [Compound 13, 8-({4-[(Trifluoromethyl)oxy]phenyl}sulfonyl)-2,8-diazaspiro[5.5]undecan-1-one]
≥ 31.6	O=C1NCCCC12CCCN(S(=O)(=O)c1cc(F)cc(C(F)(F)F)c1)C2 (stereo not drawn) [Compound 17, 8-{[3-Fluoro-5-(trifluoromethyl)phenyl]sulfonyl}-2,8-diazaspiro[5.5]undecan-1-one]
≥ 31.6	CN1CCCC2(CCCN(S(=O)(=O)c3ccc(C(F)(F)F)cc3)C2)C1=O (stereo not drawn) [Compound 5, 2-Methyl-8-{[4-(trifluoromethyl)phenyl]sulfonyl}-2,8-diazaspiro[5.5]undecan-1-one]
≥ 31.6	COc1ccc(C(F)(F)F)cc1S(=O)(=O)N1CCCC2(CCNC2=O)C1 (stereo not drawn) [Compound 32, 7-{[2-(Methyloxy)-5-(trifluoromethyl)phenyl]sulfonyl}-2,7-diazaspiro[4.5]decan-1-one]
≥ 31.6	O=C1NCCC12CCCN(S(=O)(=O)c1ccc(OC(F)(F)F)cc1)C2 (stereo not drawn) [Compound 6, 7-({4-[(Trifluoromethyl)oxy]phenyl}sulfonyl)-2,7-diazaspiro[4.5]decan-1-one]
≥ 31.6	O=C1NCCCC12CCCN(S(=O)(=O)c1cccc(C(F)(F)F)c1)C2 (stereo not drawn) [Compound 12, 8-{[3-(Trifluoromethyl)phenyl]sulfonyl}-2,8-diazaspiro[5.5]undecan-1-one]
≥ 31.6	Cc1ccc(S(=O)(=O)N2CCCC3(CCNC3=O)C2)cc1C(F)(F)F (stereo not drawn) [Compound 23, 7-{[4-Methyl-3-(trifluoromethyl)phenyl]sulfonyl}-2,7-diazaspiro[4.5]decan-1-one]
≥ 31.6	O=C1NCCC12CCCN(S(=O)(=O)c1ccc(C(F)(F)F)cc1Br)C2 (stereo not drawn) [Compound 21, 7-{[2-Bromo-4-(trifluoromethyl)phenyl]sulfonyl}-2,7-diazaspiro[4.5]decan-1-one]
≥ 31.6	O=C1NCCC12CCCN(S(=O)(=O)c1cc(C(F)(F)F)cc(C(F)(F)F)c1)C2 (stereo not drawn) [Compound 8, 7-{[3,5-Bis(trifluoromethyl)phenyl]sulfonyl}-2,7-diazaspiro[4.5]decan-1-one]
≥ 31.6	O=C1NCCCC12CCCN(S(=O)(=O)c1cccc(OC(F)F)c1)C2 (stereo not drawn) [Compound 31, 8-({3-[(Difluoromethyl)oxy]phenyl}sulfonyl)-2,8-diazaspiro[5.5]undecan-1-one]
≥ 31.6	Cc1ccc(S(=O)(=O)N2CCCC3(CCNC3=O)C2)c(OC(F)(F)F)c1 (stereo not drawn) [Compound 24, 7-({4-Methyl-2-[(trifluoromethyl)oxy]phenyl}sulfonyl)-2,7-diazaspiro[4.5]decan-1-one]
≥ 31.6	Cc1ccc(C(F)(F)F)cc1S(=O)(=O)N1CCCC2(CCNC2=O)C1 (stereo not drawn) [Compound 26, 7-{[2-Methyl-5-(trifluoromethyl)phenyl]sulfonyl}-2,7-diazaspiro[4.5]decan-1-one]
≥ 31.6	Cc1ccc(S(=O)(=O)N2CCCC3(CCCNC3=O)C2)cc1 (stereo not drawn) [Compound 35, 8-[(4-Methylphenyl)sulfonyl]-2,8-diazaspiro[5.5]undecan-1-one]
≥ 31.6	O=C1NCCCC12CCCN(S(=O)(=O)c1ccc(C(F)(F)F)cc1)C2 (stereo not drawn) [Compound 10, 8-{[4-(Trifluoromethyl)phenyl]sulfonyl}-2,8-diazaspiro[5.5]undecan-1-one]
≥ 31.6	O=C1OCCC12CCCN(S(=O)(=O)c1ccc(OC(F)(F)F)cc1)C2 (stereo not drawn) [Compound 29, 7-({4-[(Trifluoromethyl)oxy]phenyl}sulfonyl)-2-oxa-7-azaspiro[4.5]decan-1-one]
≥ 31.6	O=C1NCCC12CCCN(S(=O)(=O)c1cc(C(F)(F)F)ccc1C(F)(F)F)C2 (stereo not drawn) [Compound 16, 7-{[2,5-Bis(trifluoromethyl)phenyl]sulfonyl}-2,7-diazaspiro[4.5]decan-1-one]
≥ 31.6	O=C1OCCC12CCCN(S(=O)(=O)c1ccc(C(F)(F)F)cc1)C2 (stereo not drawn) [Compound 28, 7-{[4-(Trifluoromethyl)phenyl]sulfonyl}-2-oxa-7-azaspiro[4.5]decan-1-one]
≥ 31.6	O=C1NCCC12CCCN(S(=O)(=O)c1cccc(C(F)(F)F)c1)C2 (stereo not drawn) [Compound 9, 7-{[3-(Trifluoromethyl)phenyl]sulfonyl}-2,7-diazaspiro[4.5]decan-1-one]
≥ 31.6	O=C1NCCC12CCCN(S(=O)(=O)c1cc(Cl)cc(Cl)c1)C2 (stereo not drawn) [Compound 19, 7-[(3,5-Dichlorophenyl)sulfonyl]-2,7-diazaspiro[4.5]decan-1-one]
≥ 31.6	Cc1ccc(S(=O)(=O)N2CCCC3(CCNC3=O)C2)c(C(F)(F)F)c1 (stereo not drawn) [Compound 30, 7-{[4-Methyl-2-(trifluoromethyl)phenyl]sulfonyl}-2,7-diazaspiro[4.5]decan-1-one]
≥ 31.6	O=C1NCCC12CCCN(S(=O)(=O)c1cc(F)cc(C(F)(F)F)c1)C2 (stereo not drawn) [Compound 14, 7-{[3-Fluoro-5-(trifluoromethyl)phenyl]sulfonyl}-2,7-diazaspiro[4.5]decan-1-one]
≥ 31.6	O=C1NCCCC12CCCN(S(=O)(=O)c1cc(C(F)(F)F)ccc1C(F)(F)F)C2 (stereo not drawn) [Compound 18, 8-{[2,5-Bis(trifluoromethyl)phenyl]sulfonyl}-2,8-diazaspiro[5.5]undecan-1-one]
≥ 31.6	O=C1NCCC12CCCN(S(=O)(=O)c1ccc(OC(F)(F)F)c(Cl)c1)C2 (stereo not drawn) [Compound 20, 7-({3-Chloro-4-[(trifluoromethyl)oxy]phenyl}sulfonyl)-2,7-diazaspiro[4.5]decan-1-one]
≥ 31.6	Cc1cc(C(F)(F)F)cc(S(=O)(=O)N2CCCC3(CCNC3=O)C2)c1 (stereo not drawn) [Compound 25, 7-{[3-Methyl-5-(trifluoromethyl)phenyl]sulfonyl}-2,7-diazaspiro[4.5]decan-1-one]
≥ 31.6	O=C1NCCCC12CCCN(S(=O)(=O)c1cc(C(F)(F)F)cc(C(F)(F)F)c1)C2 (stereo not drawn) [Compound 27, 8-{[3,5-Bis(trifluoromethyl)phenyl]sulfonyl}-2,8-diazaspiro[5.5]undecan-1-one]
≥ 31.6	CN1CCC2(CCCN(S(=O)(=O)c3ccc(C(F)(F)F)cc3)C2)C1=O (stereo not drawn) [Compound 2, 2-Methyl-7-{[4-(trifluoromethyl)phenyl]sulfonyl}-2,7-diazaspiro[4.5]decan-1-one]
≥ 31.6	O=C1NCCC12CCCN(S(=O)(=O)c1cccc(OC(F)(F)F)c1)C2 (stereo not drawn) [Compound 15, 7-({3-[(Trifluoromethyl)oxy]phenyl}sulfonyl)-2,7-diazaspiro[4.5]decan-1-one]
≥ 31.6	CCOc1ccc(S(=O)(=O)N2CCCC3(CCCN(C)C3=O)C2)cc1 (stereo not drawn) [Compound 34, 8-{[4-(Ethyloxy)phenyl]sulfonyl}-2-methyl-2,8-diazaspiro[5.5]undecan-1-one]
≥ 31.6	O=C1NCCC12CCCN(S(=O)(=O)c1cccc(OC(F)F)c1)C2 (stereo not drawn) [Compound 33, 7-({3-[(Difluoromethyl)oxy]phenyl}sulfonyl)-2,7-diazaspiro[4.5]decan-1-one]

From patent publication US20130109711A1, “NOVEL COMPOUNDS” (priority 2010, published 2013)
